Reference: PMC9026148, “Pre-Clinical Study Evaluating Novel Protein Phosphatase 2A Activators as Therapeutics for Neuroblastoma” (Cancers, 2022)
Read-outs that look alike come from different tables or passages of the source.

Columns and labels:
[1] = Microsome (oxidative metabolism) stability, human; format: in vitro ADME; details: for half-life at 1 µM: liver microsomes 0.5 mg/mL, NADPH, read-out: T1/2 Human; for microsomal CLint at 1 µM: liver microsomes, read-out: CL Human
Experimental: Microsome stability assays were performed by Bioduro, LLC. Briefly, 2.5 µL (100 µM in DMSO) of test compounds are added to 197.5 µL of human, rat, or mouse microsome preparation (0.633 mg/mL in phosphate buffer) and mixed gently at 37 °C. The reaction is started by adding 50 µL NADPH (5 mM in phosphate buffer) and mixing at 37 °C. The final reaction microsome concentration is 0.5 mg/mL. The reaction is sampled at 0, 5, 15, 30, and 60 min. Reaction aliquots are quenched by adding to 1:1 methanol–acetonitrile containing analytical standards and analyzed by liquid chromatography with tandem mass spectrometry (LC-MS/MS).

CYP-3A4 = target: T1, CYP-3A4 (Homo sapiens, UniProt P08684); test: Time-dependent CYP-3A4 inhibition (midazolam turnover, human liver microsomes); format: in vitro ADME; details: for IC50: 50% inhibition of midazolam turnover
T1 construct: tissue Bioduro, LLC (contract lab that ran the assay); host or cells: human liver microsomes
T1 sequence (P08684 whole entry): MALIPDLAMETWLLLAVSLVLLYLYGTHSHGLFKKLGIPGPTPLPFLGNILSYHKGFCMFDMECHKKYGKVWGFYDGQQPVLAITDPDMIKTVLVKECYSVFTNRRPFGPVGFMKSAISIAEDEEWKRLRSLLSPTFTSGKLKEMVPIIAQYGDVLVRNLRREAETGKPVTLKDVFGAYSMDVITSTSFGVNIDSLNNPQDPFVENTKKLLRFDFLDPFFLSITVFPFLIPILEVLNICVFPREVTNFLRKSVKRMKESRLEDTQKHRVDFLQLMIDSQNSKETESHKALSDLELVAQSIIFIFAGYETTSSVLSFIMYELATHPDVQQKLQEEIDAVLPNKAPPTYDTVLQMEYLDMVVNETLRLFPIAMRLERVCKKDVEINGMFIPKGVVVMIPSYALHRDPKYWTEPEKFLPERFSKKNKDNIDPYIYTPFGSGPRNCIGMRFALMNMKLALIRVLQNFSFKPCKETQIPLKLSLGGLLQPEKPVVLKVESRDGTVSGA
Experimental: Time-dependent CYP-3A4 inhibition assays were performed by Bioduro, LLC. In brief, the test compound is pre-incubated with human liver microsomes (0.25 mg/mL in reaction) and NADPH (0.5 mM in reaction) for 5, 30, and 60 min to allow metabolite formation. Midazolam, a known standard substrate of CYP-3A4, is added to give 2.5 µM reaction concentration, and consumption (microsome stability) of midazolam is assayed as above.

SH-EP cells = test: Annexin V/PI apoptosis flow cytometry, SH-EP; format: cell-based, human; details: 10 µM, 24 h
Experimental: Apoptosis was evaluated using the FITC Annexin V Apoptosis Detection Kit (BD Biosciences) according to manufacturer’s protocol. SH-EP cells (5 × 10^5) were treated with either 792 or 1154 (10 µM) for 24 h. Cells were trypsinized, washed with PBS, centrifuged, and re-suspended in 100 μL of 1× binding buffer (0.1 M HEPES/NaOH, 1.4 M NaCl, 25 mM CaCl2, pH 7.4). Annexin V-FITC staining solutions were added, and cells were incubated for 15 min at room temperature (20–25 °C) in the dark. Cells were washed in 1 mL of 1× binding buffer, centrifuged, and re-suspended in 500 μL of 1× binding buffer. PI was added, and cells sat on ice for 1 h prior to flow cytometry. Unstained cells and cells stained with either PI or Annexin V alone were utilized for negative controls and compensation. The percent of Annexin V and/or PI positive cells was determined via flow cytometry using the Attune NxT Flow Cytometer (Invitrogen). Data are represented as percent cell population with Annexin V + PI− stained cells representing early apoptotic cells, Annexin V + PI + cells representing late apoptotic cells, cells not stained with Annexin V or PI representing live cells, and cells stained with PI only representing necrotic or dead cells. FlowJo software (FlowJo, LLC) was used for data analysis. Data reported as mean ± SEM.
Supplemental Figure S6: 792 and 1154 treatment and apoptosis. Cells were serum starved and treated with 792 or 1154 to evaluate the cell cycle as previously described (Figure 4).
(A) The percent of cells in the subG1 (<G1) is reported in tabular form. There was no sig-nificant increase in the subG1 population in any of the cell lines except for SH-EP cells […]
subG1 population, further investigation of apoptosis was performed. Cells were treated with 792 or 1154 (0, 10 µM) for 24 hours and were assessed by flow cytometry of Annexin V/PI dual staining, and FlowJo was used for analysis. […]
significant increase (B) in early apoptosis (Annexin V + PI - cells, quadrant Q3) (C) whereas […]
mechanism behind the effect of these drugs on viability. […]

[2] = system: SK-N-AS, SK-N-BE(2), SH-EP, WAC2, COA6, COA129 cells; test: alamarBlue viability, long-term cell lines and PDX cells; format: cell-based, human; details: increasing doses, 24 h; all cell lines
Experimental: CellTiter 96® Aqueous One Solution Cell Proliferation assay (Promega, Madison, WI, USA) was used to examine proliferation, and alamarBlue® assay (Thermo Fisher Scientific, Inc.) was used to evaluate viability. Cells, concentrations ranging from 5 × 10^3 to 1.5 × 10^4, depending on cell type due to wide variation in growth characteristics between established cell lines and PDX cells, were plated in 96-well plates and treated with increasing doses of 792 or 1154 for 24 h. CellTiter 96® or alamarBlue® dye (10 µL) was added for proliferation and viability assays, respectively. A microplate reader (Epoch Microplate Spectrophotometer, BioTek Instruments, Winooski, VT) measured absorbance at 490 nm for CellTiter 96® and at 570 nm for alamarBlue®, using 600 nm as a reference. […] Experiments were completed with at least three biologic replicates, and data reported as fold change ± SEM.
Supplemental Figure S5: Treatment of neuroblastoma cell lines with 792 or 1154 resulted in decreased viability. Neuroblastoma cells ( 1.5 x 104 for AS, BE, SH-EP, WAC, COA6; 3 x 105 for COA129) were plated in 96-well plates and treated with increasing doses of 792 or […]
viability following increasing doses of either 792 (A) or 1154 (B). Similarly, increasing […]
PDXs. Data reported as mean fold change ± SEM, and experiments were repeated with at least three biologic replicates. […]

WAC2 cells = test: Cell cycle analysis by flow cytometry (PI), WAC2; format: cell-based, human; details: WAC2, 15 μM, 24 h; for percentage of cells in the S phase: untreated 38.2 ± 1.0; for percentage of cells in G1: untreated 44.7 ± 1.6
Experimental: To evaluate cell cycle, cells (1 × 10^6) were plated and maintained in respective media with reduced FBS (4%) for cell synchronization. […] Cells were washed with phosphate-buffered saline (PBS) and fixed at 4 °C for 30 min with 100% ethanol. Following a second PBS wash, cells were stained with propidium iodide (PI, Invitrogen, Waltham, MA, USA), RNAse A (0.1 mg/mL, Qiagen, Germantown, MD, USA), and 0.1% TritonX (Active Motif, Carlsbad, CA, USA), and FACSCalibur^TM Flow Cytometer (BD Biosciences, Franklin Lakes, NJ, USA) was used for examination. FlowJo software (FlowJo, LLC, Ashland, OR, USA) was used for data analysis. Data reported as mean percentage cells in phase ± SEM.

[3] = 5 min pre-incubation, read-out: IC50 at Pre-incubation time 5 min
[4] = 30 min pre-incubation, read-out: IC50 at Pre-incubation time 30 min
[5] = 60 min pre-incubation, read-out: IC50 at Pre-incubation time 60 min

## O=S(=O)(N[C@H]1COC[C@@H](n2c3ccc(Cl)cc3c3cc(Cl)ccc32)[C@@H]1O)c1ccc(OC(F)(F)F)cc1 [ATUX-792]
[1]
  half-life at 1 µM: > 256 min
  microsomal CLint at 1 µM: < 5 µL/min/mg
CYP-3A4; [3]
  IC50: > 50 µM
CYP-3A4; [4]
  IC50: > 50 µM
CYP-3A4; [5]
  IC50: > 50 µM
CYP-3A4; time-dependent inhibition assay
  CYP-3A4 inhibition: no CYP-3A4 inhibition
SH-EP cells
  early apoptosis (Annexin V/PI): significant increase in early apoptosis
  late apoptosis (Annexin V/PI): increased cells in late apoptosis
[2]
  viability: significantly decreased viability
WAC2 cells
  Mean % G1 (± SEM): 54.5 (± 2.3) %
  Mean % G2 (± SEM): 14.3 (± 1.1) %
  Mean % S (± SEM): 25.4 (± 2.5) %
  percentage of cells in the S phase: 25.4 ± 2.5%
  percentage of cells in G1: 54.5 ± 2.3%

## O=S(=O)(NC1CCCC(N2c3ccccc3CCc3ccccc32)C1O)c1ccc(OC(F)(F)F)cc1 (stereo not drawn) [DBK-1154]
[1]
  half-life at 1 µM: 10 min
  microsomal CLint at 1 µM: 134 µL/min/mg
CYP-3A4; [3]
  IC50: 42 µM
CYP-3A4; [4]
  IC50: 27 µM
CYP-3A4; [5]
  IC50: 18 µM
CYP-3A4; human, human liver microsomes, probe midazolam (2.5 µM), ratio IC50 5 min / 60 min pre-incubation
  IC50 shift: 2.4
SH-EP cells
  late apoptosis (Annexin V/PI): increased cells in late apoptosis
[2]
  viability: significantly decreased viability
WAC2 cells
  Mean % G1 (± SEM): 49.6 (± 2.4) %
  Mean % G2 (± SEM): 19.0 (± 1.5) %
  Mean % S (± SEM): 28.4 (± 1.6) %
  percentage of cells in the S phase: 28.4 ± 1.6%
  percentage of cells in G1: 49.6 ± 2.4%
